In article PMC3570588 (ChemMedChem, 2012):
≈ marks a conversion by molar mass, not a printed value.

Experiments:
S. aureus DHFR = S. aureus DHFR (Staphylococcus aureus, UniProt P0A017); assay type: biochemical; details: read-out: Ki, nM (SEM) S. aureus 29213; pH 7.0, 30 °C
B. anthracis Sterne = assay type: cell-based, Bacillus anthracis
S. aureus 29213 = assay type: cell-based, Staphylococcus aureus
B. anthracis DHFR = B. anthracis DHFR (Bacillus anthracis, UniProt Q81R22); assay type: biochemical; details: read-out: Ki, nM (SEM) B. anthracis Sterne; pH 7.0, 30 °C
Chain of B. anthracis DHFR (Q81R22 1-162): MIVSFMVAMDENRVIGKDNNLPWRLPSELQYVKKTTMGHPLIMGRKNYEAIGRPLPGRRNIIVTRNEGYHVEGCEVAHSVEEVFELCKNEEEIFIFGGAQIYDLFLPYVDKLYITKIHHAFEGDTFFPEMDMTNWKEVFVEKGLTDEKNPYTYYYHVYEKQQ

Chain of S. aureus DHFR (P0A017 whole entry): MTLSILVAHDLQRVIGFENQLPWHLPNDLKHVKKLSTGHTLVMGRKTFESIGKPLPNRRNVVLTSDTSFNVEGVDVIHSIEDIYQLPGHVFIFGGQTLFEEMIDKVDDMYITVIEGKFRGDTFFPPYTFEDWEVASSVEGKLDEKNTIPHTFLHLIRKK

CCCc1nc(N)nc(N)c1Cc1cc(/C=C/C(=O)N2N=Cc3ccccc3C2C=C(C)C)c(OC)c(OC)c1 (racemic) [Compound 12c, (±)-(E)-3-{5-[(2,4-Diamino-6-propyl-5-pyrimidinyl)methyl]-2,3-dimethoxyphenyl}-1-(1-isobutenyl-2(1H)-phthalazinyl)-2-propen-1-one]
Ki (S. aureus DHFR): 4.1 nM
MIC, μg/mL B. anthracis Sterne (B. anthracis Sterne): 2 µg/mL (≈ 3.7 µM)
MIC, μg/mL S. aureus 29213 (S. aureus 29213): 2 µg/mL (≈ 3.7 µM)

CCc1nc(N)nc(N)c1Cc1cc(/C=C/C(=O)N2N=Cc3ccccc3C2C=C(C)C)c(OC)c(OC)c1 (racemic) [Compound 12b, (±)-(E)-3-{5-[(2,4-Diamino-6-ethyl-5-pyrimidinyl)methyl]-2,3-dimethoxyphenyl}-1-(1-isobutenyl-2(1H)-phthalazinyl)-2-propen-1-one]
Ki (B. anthracis DHFR): 25.4 nM
Ki (S. aureus DHFR): 2.9 nM
MIC, μg/mL B. anthracis Sterne (B. anthracis Sterne): 4 µg/mL (≈ 7.6 µM)
MIC, μg/mL S. aureus 29213 (S. aureus 29213): 0.25 to 0.5 µg/mL

CCCc1nc(N)nc(N)c1Cc1cc(/C=C/C(=O)N2N=Cc3ccccc3C2CCC)c(OC)c(OC)c1 (racemic) [Compound 11c, (±)-(E)-3-5-[(2,4-Diamino-6-propyl-5-pyrimidinyl)methyl]-2,3-dimethoxyphenyl}-1-(1-propyl-2(1H)-phthalazinyl)-2-propen-1-one]
Ki (S. aureus DHFR): 4 nM
MIC, μg/mL B. anthracis Sterne (B. anthracis Sterne): 1 µg/mL (≈ 1.89 µM)
MIC, μg/mL S. aureus 29213 (S. aureus 29213): 1 to 2 µg/mL

CCCC1c2ccccc2C=NN1C(=O)/C=C/c1cc(Cc2c(C)nc(N)nc2N)cc(OC)c1OC (racemic) [Compound 11a, (±)-(E)-3-{5-[(2,4-Diamino-6-methyl-5-pyrimidinyl)methyl]-2,3-dimethoxyphenyl}-1-(1-propyl-2(1H)-phthalazinyl)-2-propen-1-one]
Ki (B. anthracis DHFR): 72.4 nM
Ki (S. aureus DHFR): 4.5 nM
MIC, μg/mL B. anthracis Sterne (B. anthracis Sterne): 8 µg/mL (≈ 16 µM)
MIC, μg/mL S. aureus 29213 (S. aureus 29213): 0.5 µg/mL (≈ 0.999 µM)

COc1cc(Cc2c(C)nc(N)nc2N)cc(/C=C/C(=O)N2N=Cc3ccccc3C2C=C(C)C)c1OC (racemic) [Compound 12a, (±)-(E)-3-{5-[(2,4-Diamino-6-methyl-5-pyrimidinyl)methyl]-2,3-dimethoxyphenyl}-1-(1-isobutenyl-2(1H)-phthalazinyl)-2-propen-1-one]
Ki (B. anthracis DHFR): 14.3 nM
Ki (S. aureus DHFR): 3.4 nM
MIC, μg/mL B. anthracis Sterne (B. anthracis Sterne): 4 µg/mL (≈ 7.8 µM)
MIC, μg/mL S. aureus 29213 (S. aureus 29213): 0.25 to 0.5 µg/mL

CCCC1c2ccccc2C=NN1C(=O)/C=C/c1cc(Cc2c(N)nc(N)nc2CC)cc(OC)c1OC (racemic) [Compound 11b, (±)-(E)-3-5-[(2,4-Diamino-6-ethyl-5-pyrimidinyl)methyl]-2,3-dimethoxyphenyl}-1-(1-propyl-2(1H)-phthalazinyl)-2-propen-1-one]
Ki (S. aureus DHFR): 3.6 nM
MIC, μg/mL B. anthracis Sterne (B. anthracis Sterne): 4 µg/mL (≈ 7.77 µM)
MIC, μg/mL S. aureus 29213 (S. aureus 29213): 0.5 to 2 µg/mL
